Experimental findings from patent US11369644B2, “Microbial consortia” (priority 2018, dated 2022) are described below.

Several values for one entry are separate records, joined by “and”; a condition that tells them apart may be missing. Equal entries are not always repeated. Positions of bridges follow the written chain, without caps; N, C: chain ends. Non-standard residues stand in square brackets, D forms with d. Residues, ends and D or L forms follow the SMILES beside them. *: point of attachment. Ileψ(thiazoline)Cys = CC[C@H](C)[C@H](N)C1=N[C@H](C(=O)*)CS1; dOrn = NCCC[C@@H](N)C(=O)O

One assay relates to Ca. glabrata DSM 11226. Put plainly: Disk diffusion test for antimicrobial activity (DIN 58940-3) against Ca. glabrata. It is filed as cell-based. The conditions noted are these: test strain 2 (Ca. glabrata DSM 11226); positive control 2 μg Cycloheximide/disc; 24 h at 25° C.; disk diameter = 6 mm. As to the method:
(§1) Generally, all samples were provided in lyophilized from. Subsets of each sample were suspended in solvent for analysis by LC/MS and GC/MS. Following these analyses, further subsets of each sample were extracted and fractionated (to enrich the medium polar range). Fractions were analyzed by LC/MS. Cell extracts were analyzed in a bioassay against Candida sp. and Rhodotorula sp. in a disk diffusion assay at 3 concentrations.
(§2) Preparative Cell Extraction. Lyophilized cells were extracted prior to fractionation/bio assay to remove cell wall debris. The cells were adjusted to a final concentration of 50 mg/mL (Table 9) and sonicated for 15 min followed by vortexing for 2 min and a second sonication step of 15 min. Afterwards, 10 mL of the suspension were transferred to another vial an centrifuged at 10,000 RCF for 5 min. The supernatant was transferred to a new vial.
(§3) Disk diffusion test. Disk diffusion tests for antimicrobial activity were prepared according to DIN 58940-3 (DIN-Taschenbuch 222, 5. Edition) using the strains 00549fBCD000864 (Rho. glutinis, test strain #1) DSM 70821 and 00539fDSM011226 (Ca. glabrata, test strain #2) DSM 11226. […]
(§4) The test strains were diluted to 1.000.000 cfu/mL using saline solution. […] After 24 h the zone of inhibition was measured and recorded in Table 10 below.
(In general: A growth-free zone around the sample is the usual read-out of agar diffusion tests.)

Another assay deals with Rho. glutinis DSM 70821. In words: Disk diffusion test for antimicrobial activity (DIN 58940-3) against Rho. glutinis. The conditions noted are these: test strain 1 (Rho. glutinis DSM 70821); positive control 2 μg Cycloheximide/disc; 24 h at 25° C.; disk diameter = 6 mm. Type of assay: cell-based. The procedure: as §1, §2, §3, §4
The subject of another assay is F. prausnitzii ST38. Put plainly: Antibiotic resistance by broth solution method (MIC), F. prausnitzii ST38. It is filed as cell-based, Faecalibacterium prausnitzii. As to the method: (§5) Antibiotic resistance in this example was determined using the broth solution method.
(§6) Antibiotic resistance in this example was determined using the broth solution method. This procedure involved preparing two-fold dilutions of antibiotics (e.g., 1, 2, 4, 8, and 16 μg/mL) in a liquid growth medium dispensed in test tubes. The antibiotic-containing tubes were inoculated with a standardized bacterial suspension of about 1-5×10^5 CFU/mL. Following overnight incubation at 37° C., the tubes were examined for visible bacterial growth as evidenced by turbidity. The lowest concentration of antibiotic that prevented growth represented the minimal inhibitory concentration (MIC).

The subject of the next assay is FP-ST38. In words: Kirby-Bauer disk diffusion antibiotic susceptibility testing of FP-ST38. Type of assay: cell-based, Faecalibacterium prausnitzii. The conditions noted are these: FP-ST38 susceptible. The procedure:
Antibiotic susceptibility was determined by standard Kirby-Bauer disk diffusion testing. FP-ST38 is susceptible to the following antibiotics (cm=zone of inhibition): amoxicillin/clavulanic acid (2.5 cm), ceftriaxone (2 cm), tetracycline (5 cm), amikacin (2 cm), and bacitracin (3.4 cm).

The next assay relates to LC-ST100. Put plainly: Kirby-Bauer disk diffusion antibiotic susceptibility testing of LC-ST100. Type of assay: cell-based, Lactobacillus crispatus. The conditions noted are these: LC-ST100 susceptible. The procedure: Antibiotic susceptibility was determined by standard Kirby-Bauer disk diffusion testing. LC-ST100 is susceptible to the following antibiotics (cm=zone of inhibition): azithromycin (3.5 cm), amoxicillin/clavulanic acid (5 cm), clindamycin (4 cm), vancomycin (3.8 cm), ceftriaxone (3.5 cm), tetracycline (4.2 cm), ampicillin (4 cm), bacitracin (2.5 cm).

The test system of another assay is L. crispatus ST100. Put plainly: Antibiotic resistance by broth solution method (MIC), L. crispatus ST100. It is filed as cell-based, Lactobacillus crispatus. As to the method: as §5, §6
A further assay deals with AM-ST7. Put plainly: Kirby-Bauer disk diffusion antibiotic susceptibility testing of AM-ST7. Type of assay: cell-based, Akkermansia muciniphila. The conditions noted are these: AM-ST7 susceptible. The procedure: Antibiotic susceptibility was then determined by standard Kirby-Bauer disk diffusion testing. AM-ST7 was susceptible to the following antibiotics (cm=zone of inhibition): azithromycin (2.5 cm), amoxicillin/clavulanic acid (4 cm), vancomycin (1.5 cm), tetracycline (3 cm), bacitracin (2 cm), and levofloxacin (1.2 cm).

A further assay relates to A. muciniphila ST7. In words: Antibiotic resistance by broth solution method (MIC), A. muciniphila ST7. It is filed as cell-based, Akkermansia muciniphila. The procedure:
as §5, §6

With `C[C@@H]1C[C@@H]([C@H](O)CC2CC(=O)NC(=O)C2)C(=O)[C@@H](C)C1` [Cycloheximide], the “Diameter inhibition zone [mm] Pos. Control” value was 11 mm and 10 mm and 9 mm with Ca. glabrata DSM 11226; 14 mm and 13 mm in the assay on Rho. glutinis DSM 70821.

Consider `NCC[C@H](O)C(=O)N[C@@H]1C[C@H](N)[C@@H](O[C@H]2O[C@H](CN)[C@@H](O)[C@H](O)[C@H]2O)[C@H](O)[C@H]1O[C@H]1O[C@H](CO)[C@@H](O)[C@H](N)[C@H]1O` [amikacin], for which, in the assay on F. prausnitzii ST38, the antibiotic susceptibility result is “susceptible”. The compound further gave a zone of inhibition in the assay on FP-ST38 of 2 cm.

Consider `CC1(C)S[C@@H]2[C@H](NC(=O)[C@H](N)c3ccccc3)C(=O)N2[C@H]1C(=O)O` [ampicillin], for which, in the assay on LC-ST100, the zone of inhibition was 4 cm. The antibiotic susceptibility entry in the assay with L. crispatus ST100 is listed as “susceptible”.

On to `CC[C@H]1OC(=O)[C@H](C)[C@@H](O[C@H]2C[C@@](C)(OC)[C@@H](O)[C@H](C)O2)[C@H](C)[C@@H](O[C@@H]2O[C@H](C)C[C@H](N(C)C)[C@H]2O)[C@](C)(O)C[C@@H](C)CN(C)[C@H](C)[C@@H](O)[C@]1(C)O` [azithromycin], for which the figures for the zone of inhibition in the assay on AM-ST7 and in the assay on LC-ST100 were 2.5 cm and 3.5 cm, respectively. For the same compound, the antibiotic susceptibility result with A. muciniphila ST7, with F. prausnitzii ST38 and in the assay with L. crispatus ST100 was “susceptible” each time.

For `CC[C@H](C)[C@H](N)C1=N[C@H](C(=O)N[C@@H](CC(C)C)C(=O)N[C@H](CCC(=O)O)C(=O)N[C@H](C(=O)N[C@H]2CCCCNC(=O)[C@H](CC(N)=O)NC(=O)[C@@H](CC(=O)O)NC(=O)[C@H](Cc3cnc[nH]3)NC(=O)[C@@H](Cc3ccccc3)NC(=O)[C@H]([C@@H](C)CC)NC(=O)[C@@H](CCCN)NC2=O)[C@@H](C)CC)CS1` [bacitracin] ({Ileψ(thiazoline)Cys}-L[dE]IK[dOrn]I[dF]H[dD]N; lactam 4-C), the zone of inhibition with AM-ST7 came to 2 cm; in the assay with LC-ST100, 2.5 cm; in the assay on FP-ST38 it was 3.4 cm.

In the case of `CO/N=C(\C(=O)N[C@@H]1C(=O)N2C(C(=O)O)=C(CSc3nc(=O)c(=O)[nH]n3C)CS[C@H]12)c1csc(N)n1` [ceftriaxone], the zone of inhibition in the assay with LC-ST100 amounted to 3.5 cm; in the assay with FP-ST38, 2 cm.

`CCC[C@@H]1C[C@@H](C(=O)N[C@@H]([C@H]2O[C@H](SC)[C@H](O)[C@@H](O)[C@H]2O)[C@H](C)Cl)N(C)C1` [clindamycin] had a zone of inhibition in the assay with LC-ST100 of 4 cm.

Compound `C[C@H]1COc2c(N3CCN(C)CC3)c(F)cc3c(=O)c(C(=O)O)cn1c23` [levofloxacin] registered a zone of inhibition with AM-ST7 of 1.2 cm.

For the compound `CN(C)[C@@H]1C(O)=C(C(N)=O)C(=O)[C@@]2(O)C(O)=C3C(=O)c4c(O)cccc4[C@@](C)(O)[C@H]3C[C@@H]12` [tetracycline], the zone of inhibition in the assay on AM-ST7 worked out at 3 cm; with LC-ST100, 4.2 cm; in the assay with FP-ST38 it was 5 cm.

Regarding `CN[C@H](CC(C)C)C(=O)N[C@H]1C(=O)N[C@@H](CC(N)=O)C(=O)N[C@H]2C(=O)N[C@H]3C(=O)N[C@H](C(=O)N[C@H](C(=O)O)c4cc(O)cc(O)c4-c4cc3ccc4O)[C@H](O)c3ccc(c(Cl)c3)Oc3cc2cc(c3O[C@@H]2O[C@H](CO)[C@@H](O)[C@H](O)[C@H]2O[C@H]2C[C@](C)(N)[C@H](O)[C@H](C)O2)Oc2ccc(cc2Cl)[C@H]1O` [vancomycin], the results for the zone of inhibition in the assay on AM-ST7 and in the assay on LC-ST100 were 1.5 cm and 3.8 cm, respectively. Also, the antibiotic susceptibility entry in the assay on F. prausnitzii ST38 and in the assay on L. crispatus ST100 was “susceptible” in each case.

Consider amoxicillin/clavulanic acid, for which the zone of inhibition with AM-ST7 amounted to 4 cm; with LC-ST100 it was 5 cm; in the assay with FP-ST38, 2.5 cm.
